In patent publication US12686873B2, “Plants having increased tolerance to herbicides” (priority 2012, dated 2026):
Several values for one entry are separate records, joined by “and”; a condition that tells them apart may be missing. Equal entries are not always repeated.

How the values were obtained:
[1] = tested on: transgenic T1 Arabidopsis plants; test: Transgenic T1 Arabidopsis greenhouse tolerance study (injury rating); conditions: SEQ_ID 2 & 4, L397D, F420V
Soy = test: Tolerance rates for soybean (injury score 0-9); conditions: Soy
[2] = tested on: Chlamydomonas reinhardtii strains; test: Selection and dose-response of Chlamydomonas reinhardtii strains

SMILES: C#CCN1C(=O)C(F)(F)Oc2cc(F)c(-n3c(=O)n(C)c(=S)n(C)c3=O)cc21
- Injury Rating 0-100% (0 = no injury, 100 = total control) ([1]; 75 g/Ha + 1% MSO, 7 DAT, Line 1): 98%
- Injury Rating 0-100% (0 = no injury, 100 = total control) ([1]; 75 g/Ha + 1% MSO, 7 DAT, Line 2): 100%
- Injury Rating 0-100% (0 = no injury, 100 = total control) ([1]; 75 g/Ha + 1% MSO, 7 DAT, Line 3): 80%
- Injury Rating 0-100% (0 = no injury, 100 = total control) ([1]; 75 g/Ha + 1% MSO, 19 DAT, Line 1): 95%
- Injury Rating 0-100% (0 = no injury, 100 = total control) ([1]; 75 g/Ha + 1% MSO, 19 DAT, Line 2): 100%
- Injury Rating 0-100% (0 = no injury, 100 = total control) ([1]; 75 g/Ha + 1% MSO, 19 DAT, Line 3): 95%
- Injury Rating 0-100% (0 = no injury, 100 = total control) ([1]; 150 g/Ha + 1% MSO, 7 DAT, Line 1): 30%
- Injury Rating 0-100% (0 = no injury, 100 = total control) ([1]; 150 g/Ha + 1% MSO, 7 DAT, Line 2): 98%
- Injury Rating 0-100% (0 = no injury, 100 = total control) ([1]; 150 g/Ha + 1% MSO, 7 DAT, Line 3): 98%
- Injury Rating 0-100% (0 = no injury, 100 = total control) ([1]; 150 g/Ha + 1% MSO, 19 DAT, Line 1): 65%
- Injury Rating 0-100% (0 = no injury, 100 = total control) ([1]; 150 g/Ha + 1% MSO, 19 DAT, Line 2): 100%
- Injury Rating 0-100% (0 = no injury, 100 = total control) ([1]; 150 g/Ha + 1% MSO, 19 DAT, Line 3): 100%
- Injury Rating 0-100% (0 = no injury, 100 = total control) ([1]; 300 g/Ha + 1% MSO, 7 DAT, Line 1): 100%
- Injury Rating 0-100% (0 = no injury, 100 = total control) ([1]; 300 g/Ha + 1% MSO, 7 DAT, Line 2): 30%
- Injury Rating 0-100% (0 = no injury, 100 = total control) ([1]; 300 g/Ha + 1% MSO, 7 DAT, Line 3): 35%
- Injury Rating 0-100% (0 = no injury, 100 = total control) ([1]; 300 g/Ha + 1% MSO, 19 DAT, Line 1): 98%
- Injury Rating 0-100% (0 = no injury, 100 = total control) ([1]; 300 g/Ha + 1% MSO, 19 DAT, Line 2): 60%
- Injury Rating 0-100% (0 = no injury, 100 = total control) ([1]; 300 g/Ha + 1% MSO, 19 DAT, Line 3): 80%
- injury score (Soy; 1,5-dimethyl-6-thioxo-3-(...)-1,3,5-triazinane-2,4-dione 12.5 g ai/ha, amino acid substitution F420L, SEQ ID NO 2): 2 and 1
- injury score (Soy; 1,5-dimethyl-6-thioxo-3-(...)-1,3,5-triazinane-2,4-dione 12.5 g ai/ha, amino acid substitution L369D, F392V, SEQ ID NO 40): 8 and 5 and 7 and 6 and 4
- injury score (Soy; 1,5-dimethyl-6-thioxo-3-(...)-1,3,5-triazinane-2,4-dione 12.5 g ai/ha, amino acid substitution L397D, F420V, SEQ ID NO 2): 2
- injury score (Soy; 1,5-dimethyl-6-thioxo-3-(...)-1,3,5-triazinane-2,4-dione 12.5 g ai/ha, amino acid substitution L397E, SEQ ID NO 2): 5 and 7 and 6 and 4 and 8
- injury score (Soy; 1,5-dimethyl-6-thioxo-3-(...)-1,3,5-triazinane-2,4-dione 12.5 g ai/ha, amino acid substitution L397Q, SEQ ID NO 2): 7
- injury score (Soy; 1,5-dimethyl-6-thioxo-3-(...)-1,3,5-triazinane-2,4-dione 12.5 g ai/ha, amino acid substitution none, SEQ ID NO 2): 3 and 7 and 6 and 5
- injury score (Soy; 1,5-dimethyl-6-thioxo-3-(...)-1,3,5-triazinane-2,4-dione 12.5 g ai/ha, amino acid substitution none, SEQ ID NO 40): 8 and 6 and 7 and 9
- injury score (Soy; 1,5-dimethyl-6-thioxo-3-(...)-1,3,5-triazinane-2,4-dione 25 g ai/ha, amino acid substitution F420L, SEQ ID NO 2): 9 and 1 and 3 and 4 and 5
- injury score (Soy; 1,5-dimethyl-6-thioxo-3-(...)-1,3,5-triazinane-2,4-dione 25 g ai/ha, amino acid substitution F420M, SEQ ID NO 2): 4 and 1 and 5 and 8
- injury score (Soy; 1,5-dimethyl-6-thioxo-3-(...)-1,3,5-triazinane-2,4-dione 25 g ai/ha, amino acid substitution L369D, F392V, SEQ ID NO 40): 9 and 8 and 6 and 7 and 4
- injury score (Soy; 1,5-dimethyl-6-thioxo-3-(...)-1,3,5-triazinane-2,4-dione 25 g ai/ha, amino acid substitution L397D, F420V, SEQ ID NO 2): 5
- injury score (Soy; 1,5-dimethyl-6-thioxo-3-(...)-1,3,5-triazinane-2,4-dione 25 g ai/ha, amino acid substitution L397D, SEQ ID NO 2): 8 and 4 and 5
- injury score (Soy; 1,5-dimethyl-6-thioxo-3-(...)-1,3,5-triazinane-2,4-dione 25 g ai/ha, amino acid substitution L397E, F420M, SEQ ID NO 2): 2 and 1 and 0
- injury score (Soy; 1,5-dimethyl-6-thioxo-3-(...)-1,3,5-triazinane-2,4-dione 25 g ai/ha, amino acid substitution L397E, SEQ ID NO 2): 5 and 8 and 6 and 7
- injury score (Soy; 1,5-dimethyl-6-thioxo-3-(...)-1,3,5-triazinane-2,4-dione 25 g ai/ha, amino acid substitution L397Q, F420M, SEQ ID NO 2): 3 and 7 and 2 and 0 and 6
- injury score (Soy; 1,5-dimethyl-6-thioxo-3-(...)-1,3,5-triazinane-2,4-dione 25 g ai/ha, amino acid substitution L397Q, F420V, SEQ ID NO 2): 4 and 6
- injury score (Soy; 1,5-dimethyl-6-thioxo-3-(...)-1,3,5-triazinane-2,4-dione 25 g ai/ha, amino acid substitution L397Q, SEQ ID NO 2): 9
- injury score (Soy; 1,5-dimethyl-6-thioxo-3-(...)-1,3,5-triazinane-2,4-dione 25 g ai/ha, amino acid substitution none, SEQ ID NO 2): 5 and 7 and 6 and 8
- injury score (Soy; 1,5-dimethyl-6-thioxo-3-(...)-1,3,5-triazinane-2,4-dione 25 g ai/ha, amino acid substitution none, SEQ ID NO 40): 9 and 6 and 7 and 8
- injury score (Soy; 1,5-dimethyl-6-thioxo-3-(...)-1,3,5-triazinane-2,4-dione 50 g ai/ha, amino acid substitution F420L, SEQ ID NO 2): 6
- injury score (Soy; 1,5-dimethyl-6-thioxo-3-(...)-1,3,5-triazinane-2,4-dione 50 g ai/ha, amino acid substitution F420M, SEQ ID NO 2): 3 and 4 and 2 and 5 and 9
- injury score (Soy; 1,5-dimethyl-6-thioxo-3-(...)-1,3,5-triazinane-2,4-dione 50 g ai/ha, amino acid substitution L369D, F392V, SEQ ID NO 40): 8 and 7
- injury score (Soy; 1,5-dimethyl-6-thioxo-3-(...)-1,3,5-triazinane-2,4-dione 50 g ai/ha, amino acid substitution L397D, F420V, SEQ ID NO 2): 4
- injury score (Soy; 1,5-dimethyl-6-thioxo-3-(...)-1,3,5-triazinane-2,4-dione 50 g ai/ha, amino acid substitution L397D, SEQ ID NO 2): 9 and 5 and 8 and 4 and 6
- injury score (Soy; 1,5-dimethyl-6-thioxo-3-(...)-1,3,5-triazinane-2,4-dione 50 g ai/ha, amino acid substitution L397E, F420M, SEQ ID NO 2): 2 and 1
- injury score (Soy; 1,5-dimethyl-6-thioxo-3-(...)-1,3,5-triazinane-2,4-dione 50 g ai/ha, amino acid substitution L397Q, F420M, SEQ ID NO 2): 2 and 7 and 3 and 4 and 6 and 5 and 1
- injury score (Soy; 1,5-dimethyl-6-thioxo-3-(...)-1,3,5-triazinane-2,4-dione 50 g ai/ha, amino acid substitution L397Q, F420V, SEQ ID NO 2): 5 and 7
- injury score (Soy; 1,5-dimethyl-6-thioxo-3-(...)-1,3,5-triazinane-2,4-dione 75 g ai/ha, amino acid substitution L397E, F420M, SEQ ID NO 2): 2 and 3 and 1
- injury score (Soy; 1,5-dimethyl-6-thioxo-3-(...)-1,3,5-triazinane-2,4-dione 75 g ai/ha, amino acid substitution L397Q, F420M, SEQ ID NO 2): 3 and 7 and 8 and 4 and 5 and 6 and 2
- injury score (Soy; 1,5-dimethyl-6-thioxo-3-(...)-1,3,5-triazinane-2,4-dione 75 g ai/ha, amino acid substitution L397Q, F420V, SEQ ID NO 2): 5 and 7
- growth of mutagenized cells plated on solid medium containing the herbicide ([2]; 1×10^−7 M in solid medium, FIG. 2B): susceptible cells do not grow
- IC50 of mutagenized cells (strain 17) compared to Wild-type cells ([2]; dose-response curve, FIG. 3B versus FIG. 3A): much lower IC50
